# Read-outs that look alike come from different tables or passages of the source.
# Tests used:
# [1] = system: IFNγ stimulated STAT1 phosphorylation on Tyr701 (JAK1/2); experiment: JAK1/2 cellular target modulation: IFNγ stimulated phospho-STAT1 in PBMC; format: cell-based; conditions: Homo sapiens, PBMC, IFNγ 10 ng/ml, 1 hour compound preincubation, read-out: Infγ-STAT1 IC50
# Source text: (§1) Target modulation was based upon the ability of a compound to inhibit JAK isoform specific phosphorylation of selected substrates. IL-2 stimulated STAT5 phosphorylation on Tyr694 was used to assess JAK1/3 compound selectivity. GM-CSF stimulated STAT5 phosphorylation on Tyr694 was used to assess JAK2 compound selectivity. IFNγ stimulated STAT1 phosphorylation on Tyr701 was used to assess JAK1/2 compound selectivity. For all three assays, human PBMC from frozen stocks were thawed, pelleted, resuspended in complete media (90% RPMI, 10% heat inactivated FBS, 10 mM HEPES, 47 μM 2-ME, pen/strep) and placed in wells of a 96 well V-bottom plate at 200,000 per well in 120 μl complete media. Compounds were added as 15 μl per well of 10× working stock solutions in complete media with 1% DMSO (or medium with 1% DMSO for controls) and placed on a plate shaker in a 37° C. incubator with 5% CO2 for 1 hour with gentle shaking (setting of 3). Stimulation used the addition of soluble cytokines. For the JAK1/3 phospho-STAT5 assay, 15 μl of 10× working stock recombinant human IL-2 was added to a final concentration of 25 ng/ml. For the JAK2 phospho-STAT5 assay, 15 μl of 10× working stock recombinant human GM-CSF was added to a final concentration of 5 ng/ml. For the JAK1/2 phospho-STAT1 assay, 15 μl of 10× working stock of recombinant human IFNγ was added to a final concentration of 10 ng/ml. Plates were then placed back on the plate shaker in the incubator for an additional 5, 5 and 10 minutes respectively upon which the plates were removed from the incubator, sealed with a plate sealer and the cells pelleted at 400×g for 5 minutes. After pelleting, the media was removed by aspiration and the cells were lysed in ELISA specific cell lysis buffer. The levels of phospho-STAT5 were determined using a Phospho (Tyr694)/Total STAT5a,b Whole Cell Lysate kit from Meso Scale Discovery. Levels of phospho-STAT1 were determined using a CST-PathScan Phospho-STAT1 (Tyr701) Sandwich ELISA kit.
# [2] = system: IL-2 stimulated STAT5 phosphorylation on Tyr694 (JAK1/3); experiment: JAK1/3 cellular target modulation: IL-2 stimulated phospho-STAT5 in PBMC; format: cell-based; conditions: IL-2 25 ng/ml, 1 hour compound preincubation, read-out: IL2-STAT5 Inhibition IC50
# Source text: as §1
# JAK3 (a.a. 781-1124) = JAK3 (a.a. 781-1124) (Homo sapiens (Human), UniProt P52333); experiment: JAK3 enzyme activity assay (SRCtide phosphorylation, Caliper); format: biochemical; conditions: 2.5 nM JAK3, 1 μM SRCtide, 1 uM ATP, 40 minutes; read-out: JAK3 Inhibition IC50
# Method: The activity of JAK3 (a.a. 781-1124, ThermoFisher) was quantified by measuring the phosphorylation of SRCtide (FAM-GEEPLYWSFPAKKK-NH2). Kinase reactions were run in a 384-well Greiner plate with 2% final DMSO concentration under the buffer conditions of 20 mM HEPES, pH 7.5, 10 mM MgCl2, 0.01% BSA, and 0.0005% Tween-20. The kinase reaction components were 2.5 nM JAK3, 1 μM SRCtide peptide and 1 uM ATP. Examples were tested in dose-response starting at 2 μM (11 concentrations, 3-fold serial dilution, duplicate reactions). The reactions were incubated at room temperature for 40 minutes, then stopped by adding a 1:1 volume of 30 mM EDTA in 20 mM HEPES, pH 7.5 (15 mM EDTA final). After the reaction was stopped, the phosphorylated and unphosphorylated peptides were separated and quantified using a Caliper LC3000/EZ-Reader system and HTS Well Analyzer Software (Caliper, A PerkinElmer Company, Hopkinton, Mass.). GraFit (Erithacus Software Ltd., Horley, U.K.) was used to calculate inhibitor potency by fitting dose-response data to the 4-parameter logistical IC50 equation.
# (§2) Background signal is defined in the absence of enzyme and uninhibited signal is defined in the presence of vehicle (2% DMSO) alone. Compounds were evaluated in an 11 point dose-response ranging from […] to 0.34 nM. IC50 values of compounds are determined using a 4 parameter logistical fit of emission ratio as a function of the concentration of compound.
# JAK1 = JAK1 (Homo sapiens (Human), UniProt P23458); experiment: JAK1 enzyme activity assay (Thermo Fisher SelectScreen Z-lyte); format: biochemical; conditions: 1 hour kinase reaction, read-out: JAK1 Inhibition IC50
# Method: The inhibitory potency of candidate compounds of JAK1 done at Thermo Fisher Scientific in their Selectscreen using a Z-lyte assay. The 2×JAK1/Tyr 06 mixture is prepared in 50 mM HEPES pH 6.5, 0.01% BRIJ-35, 10 mM MgCl2, 1 mM EGTA, 0.02% NaN3. The final 10 μL of the Kinase Reaction consists of 21.2-91.5 ng JAK1 and 2 μM Tyr 06 in 50 mM HEPES pH 7.0, 0.01% BRIJ-35, 10 mM MgCl2, 1 mM EGTA, 0.01% NaN3. After the 1 hour Kinase Reaction incubation, 5 μL of a 1:128 dilution of Development Reagent is added.
# as §2
# Chain of JAK1 (P23458 whole entry): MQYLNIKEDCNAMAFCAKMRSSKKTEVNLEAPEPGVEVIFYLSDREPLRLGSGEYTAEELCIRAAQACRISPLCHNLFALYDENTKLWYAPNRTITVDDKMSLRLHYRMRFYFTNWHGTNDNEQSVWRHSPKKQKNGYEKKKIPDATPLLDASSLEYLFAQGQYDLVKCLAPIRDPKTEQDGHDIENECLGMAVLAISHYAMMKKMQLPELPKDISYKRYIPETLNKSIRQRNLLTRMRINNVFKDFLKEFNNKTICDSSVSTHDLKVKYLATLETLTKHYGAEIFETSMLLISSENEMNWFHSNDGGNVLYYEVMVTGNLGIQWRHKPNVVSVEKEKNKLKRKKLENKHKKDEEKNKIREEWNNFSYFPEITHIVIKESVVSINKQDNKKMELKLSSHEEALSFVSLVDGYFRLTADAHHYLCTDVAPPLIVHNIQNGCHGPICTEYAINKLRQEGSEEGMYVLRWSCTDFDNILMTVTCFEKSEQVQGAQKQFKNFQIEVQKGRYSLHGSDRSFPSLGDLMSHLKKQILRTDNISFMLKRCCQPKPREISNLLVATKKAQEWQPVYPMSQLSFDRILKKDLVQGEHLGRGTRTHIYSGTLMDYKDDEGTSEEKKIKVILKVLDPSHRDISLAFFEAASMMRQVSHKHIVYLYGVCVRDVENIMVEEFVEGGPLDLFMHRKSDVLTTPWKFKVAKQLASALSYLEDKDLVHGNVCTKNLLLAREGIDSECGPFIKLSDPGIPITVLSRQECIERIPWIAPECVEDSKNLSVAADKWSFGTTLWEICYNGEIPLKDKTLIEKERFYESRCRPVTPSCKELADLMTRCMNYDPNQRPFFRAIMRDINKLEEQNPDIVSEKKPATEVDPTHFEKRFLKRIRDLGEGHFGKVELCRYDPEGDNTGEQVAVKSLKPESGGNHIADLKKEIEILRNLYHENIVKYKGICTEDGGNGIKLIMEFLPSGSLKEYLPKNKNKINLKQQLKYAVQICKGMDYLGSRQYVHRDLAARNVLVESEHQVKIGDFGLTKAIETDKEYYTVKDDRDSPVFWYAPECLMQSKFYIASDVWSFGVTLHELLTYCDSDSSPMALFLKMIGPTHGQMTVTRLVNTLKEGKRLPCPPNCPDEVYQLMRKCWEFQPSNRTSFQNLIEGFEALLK
# Chain of JAK3 (a.a. 781-1124) (P52333 781-1124): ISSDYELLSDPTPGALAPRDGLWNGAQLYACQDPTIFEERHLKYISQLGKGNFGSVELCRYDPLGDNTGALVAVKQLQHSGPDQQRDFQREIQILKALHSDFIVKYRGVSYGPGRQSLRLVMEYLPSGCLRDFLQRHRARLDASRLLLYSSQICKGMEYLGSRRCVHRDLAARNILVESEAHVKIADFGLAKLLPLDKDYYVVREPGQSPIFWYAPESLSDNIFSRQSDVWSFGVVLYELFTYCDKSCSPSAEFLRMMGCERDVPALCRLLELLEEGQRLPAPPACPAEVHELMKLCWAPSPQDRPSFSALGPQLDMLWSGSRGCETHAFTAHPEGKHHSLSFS
IC50 [1] [nM],"IC50 ([2]; Homo sapiens, PBMC) [nM]",IC50 (JAK3 (a.a. 781-1124)) [nM],IC50 (JAK1) [nM],Structure (SMILES),IC50 ([2]; human PBMC) [nM]
≤ 100,≤ 100,≤ 10,≤ 10,"CCOC(=O)c1cnc2[nH]ccc2c1N[C@H]1CCC[C@@H](CCC#N)C1 (single isomer, unassigned; enantiomer 1) [Example 135, (cis) ethyl 4-((3-(2-cyanoethyl)cyclohexyl)amino)-1H-pyrrolo[2,3-b]pyridine-5-carboxylate, enantiomer 1]",
100 to 1000,100 to 1000,≤ 10,≤ 10,"CCCOC(=O)c1cnc2[nH]ccc2c1N[C@H]1CCC[C@H](CCC#N)C1 (racemic) [Example 140, (rac)-(trans)-propyl 4-((3-(2-cyanoethyl)cyclohexyl)amino)-1H-pyrrolo[2,3-b]pyridine-5-carboxylate]",
≤ 100,≤ 100,≤ 10,≤ 10,"CCOC(=O)c1cnc2[nH]ccc2c1N[C@@H]1CC[C@H](C)N(C(=O)CC#N)C1 [Example 146, ethyl 4-(((3R,6S)-1-(2-cyanoacetyl)-6-methylpiperidin-3-yl)amino)-1H-pyrrolo[2,3-b]pyridine-5-carboxylate]",
> 1000,≤ 100,≤ 10,≤ 10,"CCOC(=O)c1cnc2[nH]ccc2c1N[C@@H]1CCC[C@@H](CCC#N)C1 (single isomer, unassigned; enantiomer 1) [Example 137, (trans) ethyl 4-((3-(2-cyanoethyl)cyclohexyl)amino)-1H-pyrrolo[2,3-b]pyridine-5-carboxylate enantiomer 1]",
> 1000,100 to 1000,10 to 100,100 to 1000,"COCCOC(=O)c1cnc2[nH]ccc2c1N[C@H]1CCC[C@@H](CCC#N)C1 (single isomer, unassigned; enantiomer 1) [Example 149, cis-2-methoxyethyl 4-((3-(2-cyanoethyl)cyclohexyl)amino)-1H-pyrrolo[2,3-b]pyridine-5-carboxylate, enantiomer 1]",
100 to 1000,≤ 100,≤ 10,≤ 10,"COC(=O)c1cnc2[nH]ccc2c1N[C@@H]1CCC[C@H](CCC#N)C1 (racemic) [Example 152, cis-racemic-methyl 4-((3-(2-cyanoethyl)cyclohexyl)amino)-1H-pyrrolo[2,3-b]pyridine-5-carboxylate]",
100 to 1000,≤ 100,10 to 100,≤ 10,"N#CCC(=O)N1CCC[C@@H](Nc2c(C(=O)OCC3CC3)cnc3[nH]ccc23)C1 [Example 145, cyclopropylmethyl (R)-4-((1-(2-cyanoacetyl)piperidin-3-yl)amino)-1H-pyrrolo[2,3-b]pyridine-5-carboxylate]",
100 to 1000,100 to 1000,10 to 100,10 to 100,"CCOC(=O)c1cnc2[nH]ccc2c1N[C@@H]1CCCN(C(=O)C(C)(C)C#N)C1 [Example 144, ethyl (R)-4-((1-(2-cyano-2-methylpropanoyl)piperidin-3-yl)amino)-1H-pyrrolo[2,3-b]pyridine-5-carboxylate]",

# The remaining lines, values behind:
Structure (SMILES),IC50 [1] [nM],"IC50 ([2]; Homo sapiens, PBMC) [nM]",IC50 (JAK3 (a.a. 781-1124)) [nM],IC50 (JAK1) [nM],IC50 ([2]; human PBMC) [nM]
"CCOC(=O)c1cnc2[nH]ccc2c1N[C@@H]1CCCN(C(=O)C(C)C#N)C1 (stereo partly drawn) [Example 129, ethyl 4-(((3R)-1-(2-cyanopropanoyl)piperidin-3-yl)amino)-1H-pyrrolo[2,3-b]pyridine-5-carboxylate]",100 to 1000,≤ 100,≤ 10,≤ 10,
"C=CC(=O)N1CCC[C@@H](Nc2c(C(=O)OCC)cnc3[nH]ccc23)C1 [Example 34, ethyl (R)-4-((1-acryloylpiperidin-3-yl)amino)-1H-pyrrolo[2,3-b]pyridine-5-carboxylate]",> 1000,100 to 1000,100 to 1000,100 to 1000,
"CCCOC(=O)c1cnc2[nH]ccc2c1N[C@@H]1CCCN(C(=O)CC#N)C1 [Example 130, propyl (R)-4-((1-(2-cyanoacetyl)piperidin-3-yl)amino)-1H-pyrrolo[2,3-b]pyridine-5-carboxylate]",100 to 1000,100 to 1000,≤ 10,≤ 10,
"COCCOC(=O)c1cnc2[nH]ccc2c1N[C@@H]1CCCN(C(=O)CC#N)C1 [Example 131, 2-methoxyethyl (R)-4-((1-(2-cyanoacetyl)piperidin-3-yl)amino)-1H-pyrrolo[2,3-b]pyridine-5-carboxylate]",100 to 1000,100 to 1000,10 to 100,10 to 100,
"CCOC(=O)c1cnc2[nH]ccc2c1N[C@H]1CN(C(=O)C(C)C#N)CC[C@H]1C (stereo partly drawn) [Example 127, ethyl 4-(((3R,4R)-1-(2-cyanopropanoyl)-4-methylpiperidin-3-yl)amino)-1H-pyrrolo[2,3-b]pyridine-5-carboxylate]",100 to 1000,≤ 100,10 to 100,≤ 10,
"CCCOC(=O)c1cnc2[nH]ccc2c1N[C@H]1CN(C(=O)CC#N)CC[C@H]1C [Example 125, propyl 4-(((3R,4R)-1-(2-cyanoacetyl)-4-methylpiperidin-3-yl)amino)-1H-pyrrolo[2,3-b]pyridine-5-carboxylate]",100 to 1000,≤ 100,≤ 10,≤ 10,
"CCOC(=O)c1cnc2[nH]ccc2c1N[C@H]1CN(CCC#N)CC[C@H]1C [Example 24, ethyl 4-(((3R,4R)-1-(2-cyanoethyl)-4-methylpiperidin-3-yl)amino)-1H-pyrrolo[2,3-b]pyridine-5-carboxylate]",100 to 1000,≤ 100,≤ 10,≤ 10,
"CCOC(=O)c1cnc2[nH]ccc2c1N[C@@H]1CCCN(C(=O)C2(C#N)CC2)C1 [Example 128, ethyl (R)-4-((1-(1-cyanocyclopropane-1-carbonyl)piperidin-3-yl)amino)-1H-pyrrolo[2,3-b]pyridine-5-carboxylate]",> 1000,≤ 100,≤ 10,10 to 100,
"CCOC(=O)c1cnc2[nH]ccc2c1N(C)[C@H]1CC[C@H](OC(=O)CC#N)C1 (single isomer, unassigned) [Example 70, (trans)-ethyl 4-((3-(2-cyanoacetoxy)cyclopentyl)(methyl)amino)-1H-pyrrolo[2,3-b]pyridine-5-carboxylate]",> 1000,,100 to 1000,10 to 100,100 to 1000

# — patent US10981906B2, “Substituted pyrrolopyridine JAK inhibitors and methods of making and using the same” (ACLARIS THERAPEUTICS, INC., priority 2017, dated 2021)
